Experimental data reported in patent US20160212997A1, “AGRICULTURAL CHEMICALS” (REDAG CROP PROTECTION LTD, priority 2013, published 2016).
Like-named read-outs stand apart in the source and are kept apart here.

Key:
Assay type in all cases: in vivo
aphids, Myzus persicae = experiment: Potter tower spray on aphids, knockdown and mortality; conditions: Aphids; for pest or weed control at 0.1 % strength: Myzus persicae, 0.1 % w/v, read-out: Average of % corrected affected
Procedure, shortened: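 Ten aphids (mixed sex and age) per Petri dish on a leaf disc were sprayed by Potter tower with compounds at five concentrations in DMSO. Knockdown and mortality were scored at 24 and 48 hours, five replicates per treatment, alongside carrier-only and untreated controls.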

[1] = test system: red spider mites, Tetranychus urticae; experiment: Potter tower spray on red spider mites, knockdown and mortality; conditions: for percentage control: Spider mites; for activity against spider mites compared with the reference compound: versus flupyradifurone or sulfoxaflor respectively, tables 1 and 3
From the text: The compounds were screened for insecticidal efficacy against aphids, Myzus persicae, Cabbage moth, Mamestra brassicae, diamond black moths, Plutella xylostella, red spider mites, Tetranychus urticae, whitefly, Trialeurodes vaporariorum, in terms of knockdown and mortality.
Myzus persicae, Cabbage moth, Mamestra brassicae, diamond back moths, Plutella xylostella, red spider mites, Tetranychus urticae, whitefly, Trialeurodes vaporariorum, were obtained from specified laboratory cultures. Mixed sex and age aphids and mites, moth larvae and whitefly scale infested leaves were used in the experiments. Environmental conditions were closely monitored and recorded and were within the optimal range of the target species.
The compounds were screened at a range of five concentrations, diluted in DMSO. Some of the compounds were screened against aphids, whitefly and red spider mites and other compounds were screened against cabbage moth, and diamond black moths. A carrier only and an untreated control will also be conducted. Treatments were applied directly onto the insects within Petri dishes, using a potter tower.
Twenty mites and ten aphids, scales and moth larvae were placed within a Petri dish, lined with a suitable leaf disc on a damp cotton wool pad. Scales were already on leaves. The Petri dishes were then sprayed using a potter tower. The number of knocked down and anthropods were assessed at 24 and 48 hours post treatment. Five replicates were be performed for each treatment, for each species.

[2] = test system: caterpillars, a mixture of Mamestra brassicae and Lacanobia oleracea; experiment: Potter tower spray on caterpillars, knockdown and mortality; conditions: Caterpillars, read-out: Average of % corrected affected; for pest or weed control at 0.1 % strength: 0.1 % w/v; for pest or weed control at 0.00625 % strength: 0.00625 % w/v; for pest or weed control at 0.0125 % strength: 0.0125 % w/v; for pest or weed control at 0.025 % strength: 0.025 % w/v; for pest or weed control at 0.05 % strength: 0.05 % w/v
Procedure, shortened: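 Mixed Mamestra brassicae and Lacanobia oleracea larvae (ten per dish, on leaf disc over damp cotton wool) sprayed directly with a Potter tower at five concentrations in DMSO containing 1% v/v Tween 20, alongside carrier-only and untreated controls. Knockdown and mortality scored at 24 and 48 h post treatment; five replicates per treatment.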

[3] = 24 h, 24 hours post application
[4] = 48 h, 48 hours post application

Compound | percentage control (aphids, Myzus persicae; 12.5 g/ha, 24 h) | percentage control (aphids, Myzus persicae; 12.5 g/ha, 48 h) | percentage control (aphids, Myzus persicae; 25 g/ha, 24 h) | percentage control (aphids, Myzus persicae; 25 g/ha, 48 h) | percentage control (aphids, Myzus persicae; 50 g/ha, 24 h) | percentage control (aphids, Myzus persicae; 50 g/ha, 48 h) | percentage control (aphids, Myzus persicae; 100 g/ha, 24 h) | percentage control (aphids, Myzus persicae; 100 g/ha, 48 h) | percentage control (aphids, Myzus persicae; 200 g/ha, 24 h) | percentage control (aphids, Myzus persicae; 200 g/ha, 48 h) | pest or weed control at 0.1 % strength (aphids, Myzus persicae; [3]) [%] | pest or weed control at 0.1 % strength (aphids, Myzus persicae; [4]) [%] | percentage control ([1]; 12.5 g/ha, 24 h) | percentage control ([1]; 12.5 g/ha, 48 h) | percentage control ([1]; 25 g/ha, 24 h) | percentage control ([1]; 25 g/ha, 48 h) | percentage control ([1]; 50 g/ha, 24 h) | percentage control ([1]; 50 g/ha, 48 h) | percentage control ([1]; 100 g/ha, 24 h) | percentage control ([1]; 100 g/ha, 48 h) | further results
CC(=O)N=S(C)(=O)C(C)c1ccc(C(F)(F)F)nc1 (stereo not drawn) [Compound 12, N-[Methyl-oxo-[1-[6-(trifluoromethyl)-3-pyridyl]ethyl]-λ^6-sulfanylidene]acetamide] | E (A percentage control of from 1 to 19 is indicated by the letter E) | D (A percentage control of from 20 to 39 is indicated by the letter D) | E (A percentage control of from 1 to 19 is indicated by the letter E) | D (A percentage control of from 20 to 39 is indicated by the letter D) | E (A percentage control of from 1 to 19 is indicated by the letter E) | C (A percentage control of from 40 to 59 is indicated by the letter C) | E (A percentage control of from 1 to 19 is indicated by the letter E) | D (A percentage control of from 20 to 39 is indicated by the letter D) | E (A percentage control of from 1 to 19 is indicated by the letter E) | D (A percentage control of from 20 to 39 is indicated by the letter D) | 20 to 39 | 40 to 59 | D (A percentage control of from 20 to 39 is indicated by the letter D) | D (A percentage control of from 20 to 39 is indicated by the letter D) | D (A percentage control of from 20 to 39 is indicated by the letter D) | D (A percentage control of from 20 to 39 is indicated by the letter D) | C (A percentage control of from 40 to 59 is indicated by the letter C) | C (A percentage control of from 40 to 59 is indicated by the letter C) | B (A percentage control of from 60 to 79 is indicated by the letter B) | B (A percentage control of from 60 to 79 is indicated by the letter B) | percentage control ([1]; 200 g/ha, 24 h): B (A percentage control of from 60 to 79 is indicated by the letter B); percentage control ([1]; 200 g/ha, 48 h): A (A percentage control of from 80 to 100 is indicated by the letter A); activity against spider mites compared with the reference compound [1]: more active than the reference compound; pest or weed control at 0.1 % strength [2, 3]: 1 to 19%; pest or weed control at 0.00625 % strength [2, 4]: 1 to 19%; pest or weed control at 0.0125 % strength [2, 4]: 1 to 19%; pest or weed control at 0.025 % strength [2, 4]: 1 to 19%; pest or weed control at 0.05 % strength [2, 4]: 1 to 19%; pest or weed control at 0.1 % strength [2, 4]: 1 to 19%
CC(c1ccc(C(F)(F)F)nc1)S(C)(=O)=NS(C)(=O)=O (stereo not drawn) [Compound 14, N-[methyl-oxo-[1-[6-(trifluoromethyl)-3-pyridyl]ethyl]-λ^6-sulfanylidene]methane-sulfonamide] | E (A percentage control of from 1 to 19 is indicated by the letter E) | D (A percentage control of from 20 to 39 is indicated by the letter D) | E (A percentage control of from 1 to 19 is indicated by the letter E) | E (A percentage control of from 1 to 19 is indicated by the letter E) | E (A percentage control of from 1 to 19 is indicated by the letter E) | D (A percentage control of from 20 to 39 is indicated by the letter D) | E (A percentage control of from 1 to 19 is indicated by the letter E) | D (A percentage control of from 20 to 39 is indicated by the letter D) | E (A percentage control of from 1 to 19 is indicated by the letter E) | D (A percentage control of from 20 to 39 is indicated by the letter D) | 20 to 39 | 20 to 39 | D (A percentage control of from 20 to 39 is indicated by the letter D) | C (A percentage control of from 40 to 59 is indicated by the letter C) | C (A percentage control of from 40 to 59 is indicated by the letter C) | C (A percentage control of from 40 to 59 is indicated by the letter C) | D (A percentage control of from 20 to 39 is indicated by the letter D) | C (A percentage control of from 40 to 59 is indicated by the letter C) | C (A percentage control of from 40 to 59 is indicated by the letter C) | B (A percentage control of from 60 to 79 is indicated by the letter B) | percentage control ([1]; 200 g/ha, 24 h): B (A percentage control of from 60 to 79 is indicated by the letter B); percentage control ([1]; 200 g/ha, 48 h): B (A percentage control of from 60 to 79 is indicated by the letter B); activity against spider mites compared with the reference compound [1]: more active than the reference compound; pest or weed control at 0.1 % strength [2, 3]: 1 to 19%; pest or weed control at 0.00625 % strength [2, 4]: 1 to 19%; pest or weed control at 0.0125 % strength [2, 4]: 1 to 19%; pest or weed control at 0.025 % strength [2, 4]: 1 to 19%; pest or weed control at 0.05 % strength [2, 4]: 1 to 19%; pest or weed control at 0.1 % strength [2, 4]: 1 to 19%
COC(=O)N=S(C)(=O)C(C)c1ccc(C(F)(F)F)nc1 (stereo not drawn) [Compound 13, Methyl N-[methyl-oxo-[1-[6-(trifluoromethyl)-3-pyridyl]ethyl]-λ^6-sulfanylidene]carbamate] | E (A percentage control of from 1 to 19 is indicated by the letter E) | D (A percentage control of from 20 to 39 is indicated by the letter D) | E (A percentage control of from 1 to 19 is indicated by the letter E) | D (A percentage control of from 20 to 39 is indicated by the letter D) | E (A percentage control of from 1 to 19 is indicated by the letter E) | D (A percentage control of from 20 to 39 is indicated by the letter D) | E (A percentage control of from 1 to 19 is indicated by the letter E) | E (A percentage control of from 1 to 19 is indicated by the letter E) | D (A percentage control of from 20 to 39 is indicated by the letter D) | C (A percentage control of from 40 to 59 is indicated by the letter C) | 20 to 39 | 20 to 39 | D (A percentage control of from 20 to 39 is indicated by the letter D) | B (A percentage control of from 60 to 79 is indicated by the letter B) | D (A percentage control of from 20 to 39 is indicated by the letter D) | C (A percentage control of from 40 to 59 is indicated by the letter C) | D (A percentage control of from 20 to 39 is indicated by the letter D) | B (A percentage control of from 60 to 79 is indicated by the letter B) | D (A percentage control of from 20 to 39 is indicated by the letter D) | B (A percentage control of from 60 to 79 is indicated by the letter B) | percentage control ([1]; 200 g/ha, 24 h): D (A percentage control of from 20 to 39 is indicated by the letter D); percentage control ([1]; 200 g/ha, 48 h): B (A percentage control of from 60 to 79 is indicated by the letter B); activity against spider mites compared with the reference compound [1]: more active than the reference compound; pest or weed control at 0.1 % strength [2, 3]: 1 to 19%; pest or weed control at 0.00625 % strength [2, 4]: 1 to 19%; pest or weed control at 0.0125 % strength [2, 4]: 1 to 19%; pest or weed control at 0.025 % strength [2, 4]: 1 to 19%; pest or weed control at 0.05 % strength [2, 4]: 1 to 19%; pest or weed control at 0.1 % strength [2, 4]: 20 to 39%
